Test results taken from patent US8017612B2, “Piperazine compound and use thereof as a HCV polymerase inhibitor” (priority 2006, dated 2011).

Experiments:
[1] = molecular target: T1, HCV polymerase (NS5B) type 1b (Hepatitis C virus genotype 1b, UniProt P26663); assay: Assay of enzyme (HCV polymerase) inhibitory activity, type 1b enzyme; assay type: biochemical, HCV BK strain (type 1b); details: HCV polymerase inhibitory activity IC50, 1b, type 1b enzyme
T1 construct: a region encoding NS5B (J Virol 1991 March, 65(3), 1105-13, 544 amino acids after deletion of 47 amino acids on the C-terminal); 6xHis (C); made in house; host or cells: Escherichia coli
In short: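 His-tagged, C-terminally truncated NS5B (BK strain, 1b; 0.5 μg/ml) incubated with compound 60 min at 25 °C on 3′UTR-derived substrate RNA (5 μg/ml), 50 μM ATP/GTP/CTP, 2 μM UTP plus [3H]UTP, pH 7.5. Acid-precipitated RNA counted; IC50 from radioactivity with and without compound.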

[2] = molecular target: T2, HCV polymerase (NS5B) type 1a (Hepatitis C virus genotype 1a, UniProt P26664); assay: Assay of enzyme (HCV polymerase) inhibitory activity, type 1a enzyme; assay type: biochemical, HCV type 1a (cloned from the blood of patients); details: HCV polymerase inhibitory activity IC50, 1a, type 1a enzyme
T2 construct: made in house; host or cells: Escherichia coli (by the 'similar method' of the 1b enzyme)
In short: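 His-tagged NS5B, C-terminal 47 residues deleted, type 1a at 1.5 μg/ml, with 5 μg/ml HCV 3′UTR substrate RNA, 50 μM ATP/GTP/CTP, 2 μM UTP plus [3H]UTP, pH 7.5 Tris, 5 mM MgCl2; 60 min at 25° C. TCA-precipitated RNA counted by scintillation; IC50 from radioactivity with vs. without compound.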

With O=C(NCc1ccc(OCC(F)(F)F)cc1)[C@H]1CN(c2cnc3cncnc3n2)CCN1S(=O)(=O)c1ccc(OC(F)(F)F)cc1 [Example 763, (R)-4-pteridin-7-yl-1-(4-trifluoromethoxy-benzenesulfonyl)-piperazine-2-carboxylic acid 4-(2,2,2-trifluoro-ethoxy)-benzylamide] the IC50 [1] was < 100 nM and the IC50 [2] was < 100 nM.

CCOC(=O)CN(C)c1ccc(S(=O)(=O)N2CCN(c3cnc4cnccc4n3)C[C@@H]2C(=O)NCc2ccc(OC(F)(F)F)cc2)cc1 [Example 764, (methyl-{4-[(R)-4-pyrido[3,4-b]pyrazin-2-yl-2-(4-trifluoromethoxy-benzylcarbamoyl)-piperazine-1-sulfonyl]-phenyl}-amino)-acetic acid ethyl ester] was tested, and the IC50 [1] was < 100 nM and the IC50 [2] was < 100 nM.

For CN(CC(=O)O)c1ccc(S(=O)(=O)N2CCN(c3cnc4cnccc4n3)C[C@@H]2C(=O)NCc2ccc(OC(F)(F)F)cc2)cc1 [Example 765, (methyl-{4-[(R)-4-pyrido[3,4-b]pyrazin-2-yl-2-(4-trifluoromethoxy-benzylcarbamoyl)-piperazine-1-sulfonyl]-phenyl}-amino)-acetic acid], the IC50 [1] was < 100 nM and the IC50 [2] was < 100 nM.

O=C(NCc1ccc(OC(F)(F)F)cc1)[C@H]1CN(c2cnc3c(Cl)cccc3n2)CCN1S(=O)(=O)c1ccc(OC(F)(F)F)cc1 [Example 766, (R)-4-(5-chloro-quinoxalin-2-yl)-1-(4-trifluoromethoxy-benzenesulfonyl)-piperazine-2-carboxylic acid 4-trifluoromethoxy-benzylamide] was tested, and the IC50 [1] was < 100 nM and the IC50 [2] was 100 to 1000 nM.

For Cc1ncc2ncc(N3CCN(S(=O)(=O)c4ccc(OC(F)(F)F)cc4)[C@@H](C(=O)NCc4ccc(OC(F)(F)F)cc4)C3)nc2n1 [Example 767, (R)-4-(2-methyl-pteridin-7-yl)-1-(4-trifluoromethoxy-benzenesulfonyl)-piperazine-2-carboxylic acid 4-trifluoromethoxy-benzylamide], the IC50 [1] was < 100 nM and the IC50 [2] was < 100 nM.

For O=C(NCc1ccc(OC(F)(F)F)cc1)[C@H]1CN(c2nc3ccncc3s2)CCN1S(=O)(=O)c1ccc(OC(F)(F)F)cc1 [Example 768, (R)-4-thiazolo[5,4-c]pyridin-2-yl-1-(4-trifluoromethoxy-benzenesulfonyl)-piperazine-2-carboxylic acid 4-trifluoromethoxy-benzylamide], the IC50 [1] was < 100 nM and the IC50 [2] was < 100 nM.

For O=C(NCc1ccc(OC(F)(F)F)cc1)[C@H]1CN(c2cnc3ncccc3n2)CCN1S(=O)(=O)c1ccc(OC(F)(F)F)cc1 [Example 769, (R)-4-pyrido[2,3-b]pyrazin-2-yl-1-(4-trifluoromethoxy-benzenesulfonyl)-piperazine-2-carboxylic acid 4-trifluoromethoxy-benzylamide], the IC50 [1] was < 100 nM and the IC50 [2] was < 100 nM.

With O=C(NCc1ccc(OC(F)(F)F)cc1)[C@H]1CN(c2cnc3cccnc3n2)CCN1S(=O)(=O)c1ccc(OC(F)(F)F)cc1 [Example 770, (R)-4-pyrido[2,3-b]pyrazin-3-yl-1-(4-trifluoromethoxy-benzenesulfonyl)-piperazine-2-carboxylic acid 4-trifluoromethoxy-benzylamide] the IC50 [1] was < 100 nM and the IC50 [2] was < 100 nM.

With O=C(NCc1ccc(OC(F)(F)F)cc1)[C@H]1CN(c2ccc3cnccc3n2)CCN1S(=O)(=O)c1ccc(OC(F)(F)F)cc1 [Example 771, (R)-4-[1,6]naphthyridin-2-yl-1-(4-trifluoromethoxy-benzenesulfonyl)-piperazine-2-carboxylic acid 4-trifluoromethoxy-benzylamide] the IC50 [1] was < 100 nM and the IC50 [2] was < 100 nM.

In the case of O=C(NCc1ccc(SC(F)(F)F)cc1)[C@H]1CN(c2cnc3cncnc3n2)CCN1S(=O)(=O)c1ccc(OC(F)(F)F)cc1 [Example 772, (R)-4-pteridin-7-yl-1-(4-trifluoromethoxy-benzenesulfonyl)-piperazine-2-carboxylic acid 4-trifluoromethylsulfanyl-benzylamide], the IC50 [1] is reported as < 100 nM and the IC50 [2] is reported as < 100 nM.

For CCCc1ccc(CNC(=O)[C@H]2CN(c3cnc4cncnc4n3)CCN2S(=O)(=O)c2ccc(OC(F)(F)F)c(CCCC(=O)O)c2)cc1 [Example 773, 4-{5-[(R)-2-(4-propyl-benzylcarbamoyl)-4-pteridin-7-yl-piperazine-1-sulfonyl]-2-trifluoromethoxy-phenyl}-butyric acid], the IC50 [1] was < 100 nM and the IC50 [2] was < 100 nM.

In the case of O=C(O)c1ccc(N2CCN(S(=O)(=O)c3ccc(OC(F)(F)F)cc3)[C@@H](C(=O)NCc3ccc(OC(F)(F)F)cc3)C2)nc1 [Example 774, 6-[(R)-4-(4-trifluoromethoxy-benzenesulfonyl)-3-(4-trifluoromethoxy-benzylcarbamoyl)-piperazin-1-yl]-nicotinic acid], the IC50 [1] is reported as < 100 nM and the IC50 [2] is reported as < 100 nM.

For O=C(NCc1ccc(OC(F)(F)F)cc1)[C@H]1CN(c2cnc3cnccc3n2)CCN1S(=O)(=O)c1ccc(Br)s1 [Example 775, (R)-1-(5-bromo-thiophene-2-sulfonyl)-4-pyrido[3,4-b]pyrazin-2-yl-piperazine-2-carboxylic acid 4-trifluoromethoxy-benzylamide], the IC50 [1] was < 100 nM and the IC50 [2] was < 100 nM.

O=C(NCc1ccc(OC(F)(F)F)cc1)[C@H]1CN(c2nc3cccnc3s2)CCN1S(=O)(=O)c1ccc(OC(F)(F)F)cc1 [Example 776, (R)-4-thiazolo[5,4-b]pyridin-2-yl-1-(4-trifluoromethoxy-benzenesulfonyl)-piperazine-2-carboxylic acid 4-trifluoromethoxy-benzylamide] was tested, and the IC50 [1] was < 100 nM and the IC50 [2] was < 100 nM.

In the case of CCCc1ccc(CNC(=O)[C@H]2CN(c3cnc4cnccc4n3)CCN2S(=O)(=O)c2ccc(I)cc2)cc1 [Example 777, (R)-1-(4-iodo-benzenesulfonyl)-4-pyrido[3,4-b]pyrazin-2-yl-piperazine-2-carboxylic acid 4-propyl-benzylamide], the IC50 [1] is reported as < 100 nM and the IC50 [2] is reported as < 100 nM.

For CCCc1ccc(CNC(=O)[C@H]2CN(c3cnc4cnccc4n3)CCN2S(=O)(=O)c2ccc(-c3cccc(O)c3)cc2)cc1 [Example 778, (R)-1-(3′-hydroxy-biphenyl-4-sulfonyl)-4-pyrido[3,4-b]pyrazin-2-yl-piperazine-2-carboxylic acid 4-propyl-benzylamide], the IC50 [1] was < 100 nM and the IC50 [2] was < 100 nM.

With CCCc1ccc(CNC(=O)[C@H]2CN(c3cnc4cnccc4n3)CCN2S(=O)(=O)c2ccc(-c3cccc(OCC(=O)O)c3)cc2)cc1 [Example 779, {4′-[(R)-2-(4-propyl-benzylcarbamoyl)-4-pyrido[3,4-b]pyrazin-2-yl-piperazine-1-sulfonyl]-biphenyl-3-yloxy}-acetic acid] the IC50 [1] was < 100 nM and the IC50 [2] was < 100 nM.

With O=C(O)c1cccc2nc(N3CCN(S(=O)(=O)c4ccc(OC(F)(F)F)cc4)[C@@H](C(=O)NCc4ccc(OC(F)(F)F)cc4)C3)cnc12 [Example 780, 2-[(R)-4-(4-trifluoromethoxy-benzenesulfonyl)-3-(4-trifluoromethoxy-benzylcarbamoyl)-piperazin-1-yl]-quinoxaline-5-carboxylic acid] the IC50 [1] was < 100 nM and the IC50 [2] was 100 to 1000 nM.

In the case of O=C(O)c1cccc2ncc(N3CCN(S(=O)(=O)c4ccc(OC(F)(F)F)cc4)[C@@H](C(=O)NCc4ccc(OC(F)(F)F)cc4)C3)nc12 [Example 781, 3-[(R)-4-(4-trifluoromethoxy-benzenesulfonyl)-3-(4-trifluoromethoxy-benzylcarbamoyl)-piperazin-1-yl]-quinoxaline-5-carboxylic acid], the IC50 [1] is reported as < 100 nM and the IC50 [2] is reported as < 100 nM.

In the case of O=C(NCc1ccc(OC(F)(F)F)cc1)[C@H]1CN(c2ccc3nccnc3c2)CCN1S(=O)(=O)c1ccc(OC(F)(F)F)cc1 [Example 782, (R)-4-quinoxalin-6-yl-1-(4-trifluoromethoxy-benzenesulfonyl)-piperazine-2-carboxylic acid 4-trifluoromethoxy-benzylamide], the IC50 [1] is reported as < 100 nM and the IC50 [2] is reported as < 100 nM.

With O=C(NCc1ccc(OC(F)(F)F)cc1)[C@H]1CNCCN1S(=O)(=O)c1ccc(OC(F)(F)F)cc1 [Example 783, (R)-1-(4-trifluoromethoxy-benzenesulfonyl)-piperazine-2-carboxylic acid 4-trifluoromethoxy-benzylamide] the IC50 [1] was > 1000 nM and the IC50 [2] was > 1000 nM.

In the case of O=C(NCc1ccc(OC(F)(F)F)cc1)[C@H]1CN(c2nc3nc[nH]c(=O)c3s2)CCN1S(=O)(=O)c1ccc(OC(F)(F)F)cc1 [Example 784, (R)-4-(7-oxo-6,7-dihydro-thiazolo[4,5-d]pyrimidin-2-yl)-1-(4-trifluoromethoxy-benzenesulfonyl)-piperazine-2-carboxylic acid 4-trifluoromethoxy-benzylamide], the IC50 [1] is reported as < 100 nM and the IC50 [2] is reported as < 100 nM.

With O=C(NCc1ccc(OC(F)(F)F)cc1)[C@H]1CN(c2nc3nn[nH]c(=O)c3s2)CCN1S(=O)(=O)c1ccc(OC(F)(F)F)cc1 [Example 785, (R)-4-(4-oxo-3,4-dihydro-thiazolo[4,5-d][1,2,3]triazin-6-yl)-1-(4-trifluoromethoxy-benzenesulfonyl)-piperazine-2-carboxylic acid 4-trifluoromethoxy-benzylamide] the IC50 [1] was < 100 nM and the IC50 [2] was < 100 nM.
